Test results as given in patent publication US20070027198A1, “Crystal of heterocyclic compound” (priority 2003, published 2007).

Tests used:
Format in all cases: physicochemical
[1] = Investigation of transformation mediated by solvents (suspension in toluene, crystalline form confirmed by DSC); conditions: 50 mg suspended in 1 ml of toluene, stirred overnight
Experimental: The differential scanning calorimetry in Example 1 and Example 2 was made by means of a Perkin Elmer DSC7 (temperature-raising rate: 10° C./minute; the range of measurement: 50° C. (constant temperature 1 minute)→180° C.). The differential scanning calorimetry in Experimental Example 4 was made by means of Shimadzu Corporation's DSC-50 (temperature-raising rate: 2° C./minute; the range of measurement: room temperature→220° C.).
The influence of toluene (solvent) on the crystalline form of Compound A was investigated.
Form I crystals and Form II crystals of Compound A, 50 mg each, were weighed and respectively suspended in 1 ml of toluene, and stirred overnight. Thereafter, the crystals were separated by filtration and dried, of which the crystalline form was confirmed by a differential scanning calorimetry.

[2] = Investigation of thermodynamic stability by differential scanning calorimetry
Experimental: The differential scanning calorimetry in Experimental Example 5 was made by means of a Perkin Elmer DSC7 (for temperature-raising rate of 1° C./minute, the range of measurement: 130° C.→160° C.; and for temperature-raising rate of 2, 5, 7 or 10° C./minute, the range of measurement: 120° C.→170° C.).
The thermodynamic stability of the crystal of Compound A was investigated by differential scanning calorimetry.
The differential scanning calorimetry was carried out at a temperature-raising rate of 1, 2 or 5° C./minute for Form I crystal of Compound A and at 1, 5, 7 or 10° C./minute for Form II crystal. The results are shown in FIG. 7 (a chart of differential scanning calorimetry in Form I crystal), FIG. 8 and FIG. 9 (a chart of differential scanning calorimetry in Form II crystal).

[3] = Investigation of hygroscopicity (weight change and powder X-ray diffraction after storage in a desiccator); conditions: for transformation of crystalline form (powder X-ray diffraction before and after storage): 25° C. in 93% RH for 14 days; for weight change caused by absorption of moisture: 93% RH at 25° C., stored up to 14 days
Experimental: The powder X-ray diffraction spectra were measured by means of a Rigaku Corporation's RAD-2B (target: Cu; Voltage: 40 kV; current: 20 mA; scanning speed: 4°/minute; measurement error: 2θ±0.2°).
Form I crystals and Form II crystals of Compound A, approximately 1 g each, were precisely weighed in weighing bottles, which were then kept in a desiccator of 93% RH at 25° C. […] In addition, the powder X-ray diffraction spectra were measured before and after preservation. The results are shown in FIG. 3 (weight change of Form I crystal), FIG. 4 (weight change of Form II crystal), FIG. 5 (powder X-ray diffraction spectrum of Form I crystal), and FIG. 6 (powder X-ray diffraction spectrum of Form II crystal).

Row | transformation of crystalline form in solvent [1] | endothermic peaks in differential scanning calorimetry ([2]; temperature-raising rate of 1, 2 or 5° C./minute) | weight change caused by absorption of moisture ([3]; listed as Form I crystals) | peak of Form I crystal in differential scanning calorimetry ([2]; temperature-raising rate of 10° C./minute) | transformation of crystalline form (powder X-ray diffraction before and after storage) [3] | weight change caused by absorption of moisture [3] | SMILES | transformation of crystalline form (powder X-ray diffraction before and after storage) ([3]; listed as Form I crystals) | transformation of crystalline form in solvent ([1]; listed as form II crystal) | peak of Form I crystal in differential scanning calorimetry ([2]; lower temperature-raising rate: 7° C./minute, 5° C./minute, 1° C./minute)
1 | transformed into Form II crystal | only one endothermic peak | 2.3% | – | – | – | Cc1ccc(-c2nc(CCCC[C@H]3CO[C@@](C)(C(=O)O)OC3)c(C)o2)cc1 [Form I crystal, 2-methyl-c-5-[4-[5-methyl-2-(4-methylphenyl)-1,3-oxazol-4-yl]butyl]-1,3-dioxane-r-2-carboxylic acid] | transformation of crystalline form (from Form I to Form II) was recognized | – | –
2 | – | – | – | no peak of Form I crystal was confirmed | no transformation of crystalline form | no change of weight | Cc1ccc(-c2nc(CCCC[C@H]3CO[C@@](C)(C(=O)O)OC3)c(C)o2)cc1 [Form II crystal, 2-methyl-c-5-[4-[5-methyl-2-(4-methylphenyl)-1,3-oxazol-4-yl]butyl]-1,3-dioxane-r-2-carboxylic acid] | – | no transformation of crystalline form occurs | a peak resulting from Form I crystal was recognized
